Data published in PubChem BioAssay (NCI).
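Following 48 hours of exposure in 96-well plates, responses at five concentrations were used to interpolate endpoints linearly. TGI: total growth inhibition.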

Columns and labels:
Assay in all cases: inhibition of tumour cell growth, NCI panel, 48 h
786-0 renal = test system: 786-0 renal
A498 renal = test system: A498 renal
A549 NSCLC = test system: A549 NSCLC
ACHN renal = test system: ACHN renal
CAKI-1 renal = test system: CAKI-1 renal
CCRF-CEM leukemia = test system: CCRF-CEM leukemia
COLO 205 colon = test system: COLO 205 colon
DLD-1 colon = test system: DLD-1 colon
DMS 273 small cell lung = test system: DMS 273 small cell lung
EKVX NSCLC = test system: EKVX NSCLC
HCC-2998 colon = test system: HCC-2998 colon
HCT-15 colon = test system: HCT-15 colon
HL-60(TB) leukemia = test system: HL-60(TB) leukemia
HOP-62 NSCLC = test system: HOP-62 NSCLC
HOP-92 NSCLC = test system: HOP-92 NSCLC
HT29 colon = test system: HT29 colon
IGROV1 ovarian = test system: IGROV1 ovarian
K-562 leukemia = test system: K-562 leukemia
KM12 colon = test system: KM12 colon
LOX IMVI melanoma = test system: LOX IMVI melanoma
LXFL 529 NSCLC = test system: LXFL 529 NSCLC
M14 melanoma = test system: M14 melanoma
M19-MEL melanoma = test system: M19-MEL melanoma
MALME-3M melanoma = test system: MALME-3M melanoma
MOLT-4 leukemia = test system: MOLT-4 leukemia
NCI-H23 lung = test system: NCI-H23 lung
NCI-H522 lung = test system: NCI-H522 lung
OVCAR-3 ovarian = test system: OVCAR-3 ovarian
OVCAR-4 ovarian = test system: OVCAR-4 ovarian
OVCAR-5 ovarian = test system: OVCAR-5 ovarian
OVCAR-8 ovarian = test system: OVCAR-8 ovarian
RPMI-8226 leukemia = test system: RPMI-8226 leukemia
RXF 393 renal = test system: RXF 393 renal
RXF-631 renal = test system: RXF-631 renal
SF-268 CNS = test system: SF-268 CNS
SF-295 CNS = test system: SF-295 CNS
SF-539 CNS = test system: SF-539 CNS
SK-MEL-2 melanoma = test system: SK-MEL-2 melanoma
SK-MEL-5 melanoma = test system: SK-MEL-5 melanoma
SK-OV-3 ovarian = test system: SK-OV-3 ovarian
SNB-19 CNS = test system: SNB-19 CNS
SNB-75 CNS = test system: SNB-75 CNS
SNB-78 CNS = test system: SNB-78 CNS
SR leukemia = test system: SR leukemia
SW-620 colon = test system: SW-620 colon
TK-10 renal = test system: TK-10 renal
U251 CNS = test system: U251 CNS
UACC-257 melanoma = test system: UACC-257 melanoma
UACC-62 melanoma = test system: UACC-62 melanoma
UO-31 renal = test system: UO-31 renal
XF 498 CNS = test system: XF 498 CNS
DMS 114 small cell lung = test system: DMS 114 small cell lung
HCT-116 colon = test system: HCT-116 colon
HOP-18 NSCLC = test system: HOP-18 NSCLC
KM20L2 colon = test system: KM20L2 colon
NCI-H226 lung = test system: NCI-H226 lung
NCI-H460 lung = test system: NCI-H460 lung
SK-MEL-28 melanoma = test system: SK-MEL-28 melanoma
SN12C renal = test system: SN12C renal

Measured: TGI

CNC(=O)CN(CC(=O)O)C(=O)NC
not listed: DMS 114 small cell lung | HCT-116 colon | HOP-18 NSCLC | KM20L2 colon | NCI-H226 lung | NCI-H460 lung | SK-MEL-28 melanoma | SN12C renal
> 100 µM: all other assays above

CC(C)(C)N=NC(C)(C)N=C=O
not listed: HCC-2998 colon | RXF-631 renal
> 100 µM: all other assays above
